Tests used:
Assay type in all cases: cell-based
[1] = tested on: isogenic HIV-1 RT mutant virus V106A; assay: HeLa cell assay (HIV-LTR β-galactosidase reporter); conditions: Human immunodeficiency virus 1, HeLa, read-out: IC50 (nM) Range
How it was run: (§1)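 HeLa-CD4-LTR-β-gal cells, seeded overnight, were infected with isogenic recombinant HXB2 RT-mutant virus (50 to 70 total RLUs per well, DEAE-dextran) for 1.5 to 2 hours. Five-fold compound titrations (2 μM to 1 pM final, 0.1% DMSO) followed, with 72 h at 37° C. IC50 is chemiluminescent β-gal signal inhibition versus untreated controls.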

[2] = tested on: isogenic HIV-1 RT mutant virus Y188C; assay: HeLa cell assay (HIV-LTR β-galactosidase reporter); conditions: Human immunodeficiency virus 1, HeLa, read-out: IC50 (nM) Range
How it was run: as §1

[3] = tested on: isogenic HIV-1 RT mutant virus K103N/L1001; assay: HeLa cell assay (HIV-LTR β-galactosidase reporter); conditions: Human immunodeficiency virus 1, HeLa, read-out: IC50 (nM) Range
How it was run: as §1

[4] = tested on: isogenic HIV-1 RT mutant virus G190E; assay: HeLa cell assay (HIV-LTR β-galactosidase reporter); conditions: Human immunodeficiency virus 1, HeLa, read-out: IC50 (nM) Range
How it was run: as §1

[5] = tested on: isogenic HIV-1 RT mutant virus E138K; assay: HeLa cell assay (HIV-LTR β-galactosidase reporter); conditions: Human immunodeficiency virus 1, HeLa, read-out: IC50 (nM) Range
How it was run: as §1

[6] = tested on: isogenic HIV-1 RT mutant virus K101E; assay: HeLa cell assay (HIV-LTR β-galactosidase reporter); conditions: Human immunodeficiency virus 1, HeLa, read-out: IC50 (nM) Range
How it was run: as §1

HIV-2 = assay: MT4 cell assay, antiviral HIV activity (propidium iodide); conditions: Human immunodeficiency virus 2, Virus Type HIV-2, read-out: IC50 (nM) Range

SMILES	IC50 [1] [nM]	IC50 [2] [nM]	IC50 [3] [nM]	IC50 [4] [nM]	IC50 [5] [nM]	IC50 [6] [nM]	IC50 (HIV-2) [nM]
Cc1cc(S(N)(=O)=O)ccc1NC(=O)COc1ccc(Cl)cc1C(=O)c1cccc(C#N)c1 [Compound 448]	11 to 100	< 10	< 10	< 10	< 10	< 10	1000 to 3000
Cc1cc2nc[nH]c2cc1NC(=O)COc1ccc(Cl)cc1C(=O)c1cc(F)cc(C(F)(F)F)c1 [Compound 239]	11 to 100	< 10	< 10	< 10	< 10	< 10	
Cc1cc(OCCCS(N)(=O)=O)ccc1NC(=O)COc1ccc(Cl)cc1C(=O)c1cc(F)cc(C(F)(F)F)c1 [Compound 257]	11 to 100	< 10	< 10	< 10	< 10	< 10	
Cc1cc2cn[nH]c2cc1NC(=O)COc1ccc(Cl)cc1C(=O)c1cccc(C#N)c1 [Compound 453]	101 to 1000	< 10				< 10	
Cc1cc(S(N)(=O)=O)ccc1NC(=O)COc1ccc(Cl)cc1C(=O)c1cc(F)cc(C(F)(F)F)c1 [Compound 78]	11 to 100	< 10	< 10	< 10	< 10	< 10	
Cc1cc(S(N)(=O)=O)ccc1NC(=O)COc1ccc(Cl)cc1C(=O)c1cc(F)cc(F)c1 [Compound 62]	11 to 100	< 10	< 10	< 10	< 10	< 10	1000 to 3000

— patent publication US7273863B1, “Benzophenones as inhibitors of reverse transcriptase” (SmithKline Beecham Corporation, priority 1999, dated 2007)
